In patent US8273738B2, “Imidazole derivatives” (priority 2006, dated 2012):
Structures can show the parent of a compound that is named as a salt. Where two headings read alike, the source gives them in different places.

Assays:
[1] = molecular target: T1, CB2 receptor (Rattus norvegicus, UniProt Q9QZN9); experiment: Cannabinoid CB2 receptor-binding activity ([3H]CP55940 binding experiment), rat spleen membrane specimen
T1 construct: from tissue; host or cells: rat spleen membrane specimen
T1 sequence (Q9QZN9 1-360): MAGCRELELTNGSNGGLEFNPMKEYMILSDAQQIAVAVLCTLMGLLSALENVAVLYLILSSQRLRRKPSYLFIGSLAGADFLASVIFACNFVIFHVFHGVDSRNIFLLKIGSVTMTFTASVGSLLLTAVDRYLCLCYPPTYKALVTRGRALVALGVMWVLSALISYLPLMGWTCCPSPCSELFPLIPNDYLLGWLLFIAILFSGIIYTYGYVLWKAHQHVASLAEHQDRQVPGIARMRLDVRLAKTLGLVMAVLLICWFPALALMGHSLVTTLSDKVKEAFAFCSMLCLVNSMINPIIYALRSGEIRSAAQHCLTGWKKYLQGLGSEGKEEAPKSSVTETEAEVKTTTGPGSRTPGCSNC
Method: A test was carried out according to the method of Hillard et al. [The Journal of Pharmacology and Experimental Therapeutics, vol. 289, p. 1427 (1999)]. A rat forebrain membrane specimen and a rat spleen membrane specimen were prepared and used in a binding experiment for a CB1 receptor and a binding experiment for a CB2 receptor, respectively. The membrane specimen (forebrain: final concentration of 0.5 mg of protein/mL, spleen: final concentration of 2 mg of protein/mL) was incubated together with a test compound and [^3H]CP55940 (manufactured by PerkinElmer) ((−)-cis-3-[2-hydroxy-[3,5-^3H]-4-(1,1-dimethylheptyl)phenyl]-trans-4-(3-hydroxypropyl)cyclohexanol)) (final concentration: 0.5 nmol/L) in an assay buffer (50 mmol/L Tris-HCl buffer (pH 7.4), 1 mmol/L EDTA and 3 mmol/L MgCl2) containing 0.1% bovine serum albumin at 25° C. for 1 hour, and the resulting mixture was filtered using a glass filter GF/C (manufactured by Whatman) treated with 1% polyethyleneimine. After the glass filter was washed with the assay buffer containing 0.2% bovine serum albumin, the radioactivity on the glass filter was measured using a liquid scintillation counter (TRI-CARB 2700TR, manufactured by Packard). The binding amount in the presence of 10 μmol/L […] (manufactured by Tocris) ((R)-(+)-[2,3-dihydro-5-methyl-3-(4-morpholinylmethyl)pyrrolo[1,2,3-de]-1,4-benzoxazin-6-yl]-1-naphthalenylmethanone) was considered to be a non-specific binding amount, and a difference between the total binding amount and the non-specific binding amount was considered to be a specific binding amount. The 50% inhibitory concentration (IC50 value) of the test compound against the specific binding was obtained, and the Ki value of the test substance was calculated from the 50% inhibitory concentration and the Kd value of the [^3H]CP55940 binding.

[2] = molecular target: T2, human CB2 receptor (Homo sapiens, UniProt P34972); experiment: GTPγS binding experiment via human CB2 receptor (membrane fraction of CHO-K1 cells); assay type: biochemical; conditions: for Emax: read-out: Emax value (maximum effect of CP55940 as 100%)
T2 construct: expressed in transfected cells
Method: A test was carried out according to the method of Hillard et al. [The Journal of Pharmacology and Experimental Therapeutics, vol. 289, p. 1427 (1999)]. As for a membrane specimen, a membrane fraction was prepared from CHO-K1 cells in which a human CB2 receptor [Nature, vol. 365, pp. 61-65 (1993)] was stably expressed and used. The membrane specimen (final concentration: 40 μg of protein/mL) was incubated together with a test compound and [^35S]GTPγS (manufactured by PerkinElmer) (final concentration: 0.05 nmol/L) in an assay buffer (50 mmol/L Tris-HCl buffer (pH 7.4), 100 mmol/L NaCl, 1 mmol/L EDTA, 3 mmol/L MgCl2, and 0.1% bovine serum albumin) containing 20 μmol/L guanosine 5′-diphosphate (GDP) at 30° C. for 1 hour, and the resulting mixture was filtered using a glass filter GF/B (manufactured by Whatman). After the glass filter was washed with the assay buffer, the radioactivity on the glass filter was measured using a liquid scintillation counter (TRI-CARB 2700TR, manufactured by Packard). The binding amount in the presence of 10 μmol/L GTPγS was considered to be a non-specific binding amount, and a difference between the total binding amount and the non-specific binding amount was considered to be a specific binding amount. The ratio of increase in the specific binding amount in the presence of the test compound to the specific binding amount in the absence of the test compound was considered to be an agonistic activity of the test compound. The concentration of the test compound that produces 50% of the maximum effect (EC50 value) was calculated by performing a nonlinear regression analysis using the concentration-response data. The percentage of the maximum effect of the test compound (Emax value) was calculated by considering the maximum effect of CP55940 (manufactured by Tocris) measured at the same time as 100%.

[3] = tested on: rats with chronic constriction nerve injury; experiment: Analgesic effect in rats with chronic constriction nerve injury (von Frey filament); assay type: in vivo, rat; conditions: oral, dose of 50 mg/kg or less, one hour after administration, von Frey filaments
Excerpt: Rats with chronic constriction nerve injury were produced by partially modifying the method of Mosconi and Kruger et al. (Pain, vol. 64, pp. 37-57 (1996))
Male Crl:CD(SD) rats were used for the experiments. Under pentobarbital anesthesia, the sciatic nerve of the left hind limb of the rat was exfoliated, and the exfoliated region was wrapped with a polyethylene tube (trade name: Intramedic, size: PE-60, manufactured by Becton Dickinson and Company) of 2 mm in length. On days 14 to 21 after the surgery, the rats were placed in an acrylic connected cage with a wire mesh floor (900 mm (length)×210 mm (depth)×140 mm (height)) consisting of 4 cages connected in a row and allowed to acclimate to the environment for at least 20 minutes, and then, the pain was evaluated.
The von Frey filament (trade name: touch test sensory evaluator, Model number: model 58011, manufactured by Muromachi Kikai) was used to evaluate pain, and the results were calculated as a pain threshold. That is, by using a von Frey filament of different stimulus intensity, stimulation was given to the plantar surface of the injured side of rats with chronic constriction nerve injury, and the stimulus intensity to cause paw withdrawal response was obtained. Then, the 50% pain threshold (Paw withdrawal threshold) (g) was calculated by the up down method of Dixon [Annual Review of Pharmacology and Toxicology, vol. 20, pp. 441-462 (1980)].
In the evaluation of the test compound, rats with 50% pain threshold of less than 4 g were used, and the test compound was dissolved in a 0.5% aqueous methyl cellulose solution and orally administered at a dose of 5 mL/kg. One hour after the administration, the pain threshold was measured using von Frey filaments.

[4] = rat spleen membrane, [3H]CP55940 0.5 nmol/L, 25° C., 1 hour, read-out: Ki value against the CB2 receptor

T2 sequence (P34972 whole entry): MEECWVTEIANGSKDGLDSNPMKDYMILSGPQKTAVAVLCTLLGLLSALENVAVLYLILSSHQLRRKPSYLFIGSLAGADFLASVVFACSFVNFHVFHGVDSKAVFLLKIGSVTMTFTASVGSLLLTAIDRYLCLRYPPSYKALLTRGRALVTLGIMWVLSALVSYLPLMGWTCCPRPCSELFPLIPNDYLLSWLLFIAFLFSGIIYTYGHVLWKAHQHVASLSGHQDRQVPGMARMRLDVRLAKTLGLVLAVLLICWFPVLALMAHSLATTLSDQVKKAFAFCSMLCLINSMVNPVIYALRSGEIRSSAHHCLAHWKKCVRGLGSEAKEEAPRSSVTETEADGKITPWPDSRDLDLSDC

SMILES	Ki [1, 4]	EC50 [2]	Emax [2]	Ki [1]	50% pain threshold (paw withdrawal threshold) [3]
CC(C)(C)c1nc(-c2cccc([N+](=O)[O-])c2)cn1CC1CCCCC1 [Compound 28, 2-tert-Butyl-1-cyclohexylmethyl-4-(3-nitrophenyl)-1H-imidazole]	< 1000 nM	–	–	–	–
CCN(CC)C(=O)c1cccc(-c2cn(CC3CCCCC3)c(C(C)(C)C)n2)c1 [Compound 32, 3-(2-tert-Butyl-1-cyclohexylmethyl-1H-imidazol-4-yl)-N,N-diethylbenzamide]	< 1000 nM	–	–	–	–
COc1cccc(-c2cn(CC3CCCCC3)c(CC(C)(C)C)n2)c1 [Compound 38, 1-Cyclohexylmethyl-2-(2,2-dimethylpropyl)-4-(3-methoxyphenyl)-1H-imidazole]	–	< 1000 nM	> 30%	–	–
CC(C)(C)c1nc(-c2cccc([N+](=O)[O-])c2)cn1CC1CCCCO1 (stereo not drawn) [Compound 42, 2-tert-Butyl-4-(3-nitrophenyl)-1-(tetrahydropyran-2-ylmethyl)-1H-imidazole]	–	< 1000 nM	> 30%	< 1000 nM	–
CC(C)C(=O)c1cccc(-c2cn(CC3CCOCC3)c(C(C)(C)C)n2)c1 [Compound 47, 1-{3-[2-tert-Butyl-1-(tetrahydropyran-4-ylmethyl)-1H-imidazol-4-yl]phenyl}-2-methylpropan-1-one hydrochloride]	< 1000 nM	–	–	–	–
CC(C)(C)c1nc(-c2cccc(C(=O)c3ccccc3)c2)cn1CC1CCOCC1 [Compound 48, {3-[2-tert-Butyl-1-(tetrahydropyran-4-ylmethyl)-1H-imidazol-4-yl]phenyl}phenylmethanone hydrochloride]	–	< 1000 nM	> 30%	< 1000 nM	–
CC(=O)c1cccc(-c2cn(CC3CCOCC3)c(C(C)(C)C)n2)c1 [Compound 49, 1-{3-[2-tert-Butyl-1-(tetrahydropyran-4-ylmethyl)-1H-imidazol-4-yl]phenyl}ethanone]	< 1000 nM	< 1000 nM	> 30%	–	–
CCNC(=O)c1cccc(-c2cn(CC3CCOCC3)c(C(C)(C)C)n2)c1 [Compound 72, 3-(2-tert-Butyl-1-(tetrahydropyran-4-ylmethyl)-1H-imidazol-4-yl)-N-ethylbenzamide]	–	< 1000 nM	> 30%	< 1000 nM	–
CCN(CC)c1cccc(-c2cn(CC3CCOCC3)c(C(C)(C)C)n2)c1 [Compound 77, {3-[2-tert-Butyl-1-(tetrahydropyran-4-ylmethyl)-1H-imidazol-4-yl]phenyl}-diethylamine]	–	< 1000 nM	> 30%	< 1000 nM	–
CC(C)(C)c1nc(-c2cccc(C(=O)N(CC(F)(F)F)CC(F)(F)F)c2)cn1CC1CCOCC1 [Compound 82, 3-(2-tert-Butyl-1-(tetrahydropyran-4-ylmethyl)-1H-imidazol-4-yl)-N,N-bis(2,2,2-trifluoroethyl)benzamide]	–	< 1000 nM	> 30%	< 1000 nM	–
CC(C)(C)c1nc(-c2cncc(Br)c2)cn1CC1CCOCC1 [Compound 84, 3-Bromo-5-[2-tert-Butyl-1-(tetrahydropyran-4-ylmethyl)-1H-imidazol-4-yl]pyridine]	< 1000 nM	–	–	–	–
CC(C)(C)c1nc(C=CC(=O)N(CC(F)(F)F)CC(F)(F)F)cn1CC1CCOCC1 [Compound 90, 3-(2-tert-Butyl-1-(tetrahydropyran-4-ylmethyl)-1H-imidazol-4-yl)-N,N-bis(2,2,2-trifluoroethyl)acrylamide]	< 1000 nM	–	–	–	–
CCCN(CCC)C(=O)C=Cc1cn(CC2CCOCC2)c(C(C)(C)C)n1 [Compound 92, 3-(2-tert-Butyl-1-(tetrahydropyran-4-ylmethyl)-1H-imidazol-4-yl)-N,N-dipropylacrylamide]	< 1000 nM	–	–	–	–
CN(C)C(=O)c1cc(-c2cn(CC3CCOCC3)c(C(C)(C)C)n2)cs1 [Compound 133, 4-[2-tert-Butyl-1-(tetrahydropyran-4-ylmethyl)-1H-imidazol-4-yl]thiophene-2-carboxylic acid dimethylamide]	< 1000 nM	–	–	–	significantly increased the pain threshold
CN(C)C(=O)c1cccc(-c2cn(CC3(F)CCOCC3)c(C(C)(C)C)n2)c1 [Compound 187, 3-[2-tert-Butyl-1-(4-fluorotetrahydropyran-4-ylmethyl)-1H-imidazol-4-yl]-N,N-dimethylbenzamide]	< 1000 nM	–	–	–	significantly increased the pain threshold
CN(C)C(=O)c1cc(-c2cn(CC3(F)CCOCC3)c(C(C)(C)C)n2)cs1 [Compound 188, 4-[2-tert-Butyl-1-(4-fluorotetrahydropyran-4-ylmethyl)-1H-imidazol-4-yl]-N,N-dimethylthiophene-2-carboxamide]	< 1000 nM	–	–	–	–
CN(CC#N)C(=O)c1cncc(-c2cn(CC3CCOCC3)c(C(C)(C)C)n2)n1 [Compound 207, 6-[2-tert-Butyl-1-(tetrahydropyran-4-ylmethyl)-1H-imidazol-4-yl]-N-cyanomethyl-N-methylpyrazine-2-carboxamide]	< 1000 nM	–	–	–	significantly increased the pain threshold
CCOc1ccc(Cc2nc(-c3cccc(OC)c3)cn2CC2CCOCC2)cc1 [Compound o, 2-(4-Ethoxybenzyl)-4-(3-methoxyphenyl)-1-(tetrahydro-pyran-4-ylmethyl)-1H-imidazole]	< 1000 nM	–	–	–	–
CCOc1ccc(Cc2nc(-c3cccc(C#N)c3)cn2CC2CCOCC2)cc1 [Compound p, 3-[2-(4-Ethoxybenzyl)-1-(tetrahydropyran-4-ylmethyl)-1H-imidazol-4-yl]benzonitrile]	< 1000 nM	–	–	–	–
CCOc1ccc(Cc2nc(-c3cccc(C(=O)N(CC)CC)c3)cn2CC2CCOCC2)cc1 [Compound q, 3-[2-(4-Ethoxybenzyl)-1-(tetrahydropyran-4-ylmethyl)-1H-imidazol-4-yl]-N,N-diethylbenzamide]	< 1000 nM	–	–	–	–
